Laboratory results from patent US10913727B2, “Modulators of the integrated stress pathway” (Calico Life Sciences LLC, priority 2016, dated 2021).
pEC50: −log10 of the molar value.

System: HEK293T cells carrying the ATF4 luciferase reporter
Test: ATF4-Luc assay, in vitro model of Vanishing Cell White Matter Disease (VWMD)
Format: cell-based
Conditions: Homo sapiens, HEK-293T, 1 μg/mL tunicamycin, 7 hours, One Glo luminescence
Procedure, shortened: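 Reporter cells were stably generated by retroviral transduction and puromycin selection, then seeded at 30,000 cells/well. Next day, cells received 1 μg/mL tunicamycin with 200 nM test compound for 7 h, and luciferase luminescence was read with a one-step reagent. Values reported as EC50.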

Structure (SMILES) | pEC50
O=C(COc1ccc(Cl)c(Cl)c1)NC12CCC(NC(=O)c3cnc(C(F)F)cn3)(CC1)C[C@@H]2O [Compound 703, N-{(3S)-4-[2-(3,4-dichlorophenoxy)acetamido]-3-hydroxybicyclo[2.2.2]octan-1-yl}-5-(difluoromethyl)pyrazine-2-carboxamide] | > 7.30
O=C(COc1ccc(Cl)c(F)c1)NC12CC(NC(=O)c3ncccc3Cl)(C1)C2 [Compound 899, 3-chloro-N-{3-[2-(4-chloro-3-fluorophenoxy)acetamido]bicyclo[1.1.1]pentan-1-yl}pyridine-2-carboxamide] | 6.00 to 6.60
CCn1nc(C)cc1C(=O)NC12CC(NC(=O)COc3ccc(Cl)c(F)c3)(C1)C2 [Compound 359, N-{3-[2-(4-chloro-3-fluorophenoxy)acetamido]bicyclo[1.1.1]pentan-1-yl}-1-ethyl-3-methyl-1H-pyrazole-5-carboxamide] | 6.00 to 6.60
Cc1cnc(C(=O)NC23CC(NC(=O)COc4ccc(Cl)c(F)c4)(C2)C3)cn1 [Compound 114, N-{3-[2-(4-chloro-3-fluorophenoxy)acetamido]bicyclo[1.1.1]pentan-1-yl}-5-methylpyrazine-2-carboxamide] | 6.60 to 7.30
Cc1cnc2cc(C(=O)NC34CC(NC(=O)COc5ccc(Cl)c(F)c5)(C3)C4)nn2c1 [Compound 833, N-{3-[2-(4-chloro-3-fluorophenoxy)acetamido]bicyclo[1.1.1]pentan-1-yl}-6-methylpyrazolo[1,5-a]pyrimidine-2-carboxamide] | 5.70 to 6.00
CCNC(=O)c1ccc(C(=O)NC23CC(NC(=O)COc4ccc(Cl)c(F)c4)(C2)C3)nc1 [Compound 270, N^2-{3-[2-(4-chloro-3-fluorophenoxy)acetamido]bicyclo[1.1.1]pentan-1-yl}-N^5-ethylpyridine-2,5-dicarboxamide] | < 5.70
Cc1ncc(C(=O)NC23CC(NC(=O)COc4ccc(Cl)c(F)c4)(C2)C3)nc1C [Compound 196, N-{3-[2-(4-chloro-3-fluorophenoxy)acetamido]bicyclo[1.1.1]pentan-1-yl}-5,6-dimethylpyrazine-2-carboxamide] | 6.00 to 6.60
O=C(COc1ccc(Cl)c(F)c1)NC12CC(NC(=O)c3ccsc3)(C1)C2 [Compound 306, N-{3-[2-(4-chloro-3-fluorophenoxy)acetamido]bicyclo[1.1.1]pentan-1-yl}thiophene-3-carboxamide] | 6.00 to 6.60
O=C(COc1ccc(Cl)c(F)c1)NC12CC(NC(=O)c3ccc(-n4cncn4)cc3)(C1)C2 [Compound 783, N-{3-[2-(4-chloro-3-fluorophenoxy)acetamido]bicyclo[1.1.1]pentan-1-yl}-4-(1H-1,2,4-triazol-1-yl)benzamide] | < 5.70
NC(=O)c1ccncc1C(=O)NC12CC(NC(=O)COc3ccc(Cl)c(F)c3)(C1)C2 [Compound 826, N^3-{3-[2-(4-chloro-3-fluorophenoxy)acetamido]bicyclo[1.1.1]pentan-1-yl}pyridine-3,4-dicarboxamide] | 5.70 to 6.00
O=C(COc1ccc(Cl)c(F)c1)NC12CCC(NC(=O)c3cn4cc(F)ccc4n3)(CC1)CC2O (stereo not drawn) [Compound 600, N-{4-[2-(4-chloro-3-fluorophenoxy)acetamido]-3-hydroxybicyclo[2.2.2]octan-1-yl}-6-fluoroimidazo[1,2-a]pyridine-2-carboxamide] | 6.00 to 6.60
COc1cncc(NC23CC(NC(=O)COc4ccc(Cl)c(F)c4)(C2)C3)n1 [Compound 756, 2-(4-chloro-3-fluorophenoxy)-N-{3-[(6-methoxypyrazin-2-yl)amino]bicyclo[1.1.1]pentan-1-yl}acetamide] | 6.00 to 6.60
CCc1ccnc(C(=O)NC23CC(NC(=O)COc4ccc(Cl)c(F)c4)(C2)C3)c1 [Compound 197, N-{3-[2-(4-chloro-3-fluorophenoxy)acetamido]bicyclo[1.1.1]pentan-1-yl}-4-ethylpyridine-2-carboxamide] | 6.60 to 7.30
Cc1nn(C)c(C(=O)NC23CCC(NC(=O)COc4ccc5c(c4)OC(F)(F)O5)(CC2)[C@@H](O)C3)c1F [Compound 637, N-[(3S)-4-{2-[(2,2-difluoro-2H-1,3-benzodioxol-5-yl)oxy]acetamido}-3-hydroxybicyclo[2.2.2]octan-1-yl]-4-fluoro-1,3-dimethyl-1H-pyrazole-5-carboxamide] | 6.00 to 6.60
Cn1nc(C(C)(C)C)cc1C(=O)NC12CC(NC(=O)COc3ccc(Cl)c(F)c3)(C1)C2 [Compound 338, 3-tert-butyl-N-{3-[2-(4-chloro-3-fluorophenoxy)acetamido]bicyclo[1.1.1]pentan-1-yl}-1-methyl-1H-pyrazole-5-carboxamide] | 6.60 to 7.30
Cc1cc(C(=O)NC23CC(NC(=O)COc4ccc(Cl)c(Cl)c4)(C2)C3)sn1 [Compound 617, N-{3-[2-(3,4-dichlorophenoxy)acetamido]bicyclo[1.1.1]pentan-1-yl}-3-methyl-1,2-thiazole-5-carboxamide] | > 7.30
O=C(COc1ccc(Cl)c(F)c1)NC12CCC(NC(=O)c3ccc4oc(=O)ccc4c3)(CC1)[C@@H](O)C2 [Compound 407, N-{(2S)-4-[2-(4-chloro-3-fluorophenoxy)acetamido]-2-hydroxybicyclo[2.2.2]octan-1-yl}-2-oxo-2H-1-benzopyran-6-carboxamide] | 5.70 to 6.00
CN(C(=O)c1cnc(C(F)F)cn1)C12CC(NC(=O)COc3ccc(Cl)c(F)c3)(C1)C2 [Compound 352, N-{3-[2-(4-chloro-3-fluorophenoxy)acetamido]bicyclo[1.1.1]pentan-1-yl}-5-(difluoromethyl)-N-methylpyrazine-2-carboxamide] | 6.60 to 7.30
CCc1noc(C(=O)NC23CCC(NC(=O)COc4ccc(Cl)c(F)c4)(CC2)C(O)C3)n1 (stereo not drawn) [Compound 567, N-{4-[2-(4-chloro-3-fluorophenoxy)acetamido]-3-hydroxybicyclo[2.2.2]octan-1-yl}-3-ethyl-1,2,4-oxadiazole-5-carboxamide] | 6.60 to 7.30
Cc1cc(C(=O)NC23CCC(NC(=O)COc4ccc(Cl)c(F)c4)(C2)C3)sn1 [Compound 710, N-{4-[2-(4-chloro-3-fluorophenoxy)acetamido]bicyclo[2.1.1]hexan-1-yl}-3-methyl-1,2-thiazole-5-carboxamide] | 6.00 to 6.60
COc1ccc(C(=O)NC23CC(NC(=O)COc4ccc(Cl)c(F)c4)(C2)C3)cn1 [Compound 154, N-{3-[2-(4-chloro-3-fluorophenoxy)acetamido]bicyclo[1.1.1]pentan-1-yl}-6-methoxypyridine-3-carboxamide] | 6.00 to 6.60
O=C(COc1ccc(Cl)c(F)c1)NC12CC(NC(=O)c3cc(-c4ccc(Cl)cc4)on3)(C1)C2 [Compound 113, N-{3-[2-(4-chloro-3-fluorophenoxy)acetamido]bicyclo[1.1.1]pentan-1-yl}-5-(4-chlorophenyl)-1,2-oxazole-3-carboxamide] | 6.60 to 7.30
Cn1cc(-c2cc(C(=O)NC34CC(NC(=O)COc5ccc(Cl)c(F)c5)(C3)C4)on2)cn1 [Compound 835, N-{3-[2-(4-chloro-3-fluorophenoxy)acetamido]bicyclo[1.1.1]pentan-1-yl}-3-(1-methyl-1H-pyrazol-4-yl)-1,2-oxazole-5-carboxamide] | 5.70 to 6.00
O=C(COc1ccc(Cl)c(F)c1)NC12CC(NC(=O)c3ccno3)(C1)C2 [Compound 311, N-{3-[2-(4-chloro-3-fluorophenoxy)acetamido]bicyclo[1.1.1]pentan-1-yl}-1,2-oxazole-5-carboxamide] | 5.70 to 6.00
